From patent US20100286217A1, “STABLE, LOW VOC, LOW VISCOUS BIOCIDAL FORMULATIONS AND METHOD OF MAKING SUCH FORMULATIONS” (priority 2008, published 2010)

Assay: Dissolution of IPBC in MPEG-350/DMSO versus PEG-400/DMSO
Assay type: physicochemical
Conditions: 60% IPBC solution
Description: In a 100 ml beaker is added about 25 ml of solvent, and the weight is recorded to four significant digits. The beaker is heated to 40-60° C. (depending on the active being tested) in a water bath. The solute of interest is added stepwise (all aliquot weights are recorded to four significant digits) until saturation is achieved. Once the solid remains undissolved, back-titration with known weights of solvent are performed until the solution is clear.
This example compares the viscosity and VOC content of 55 and 60% IPBC formulations in MPEG-350/DMSO and PEG-400/DMSO. For the 55% IPBC solutions, 10% DMSO is used. For the 60% solutions, only 10% DMSO is required for complete dissolution of the IPBC when MPEG is used, however, 15% DMSO is required for complete dissolution of the IPBC when PEG 400 is used. Viscosity and VOC data are in Table 6.

CCCCNC(=O)OCC#CI [IPBC, 3-iodo-2-propynyl butyl carbamate]
DMSO required for complete dissolution of the IPBC (MPEG used): 10% | DMSO required for complete dissolution of the IPBC (PEG 400 used): 15%
